# Experimental data from US20090117607A1, “Methods For Differential Detection Of Hypoxic Tissue From A Tissue Sample Of A Mammalian Subject” (priority 2007, published 2009).
# Values joined by “and” are separate entries in the source; they are usually repeats but may differ in a detail not shown here. Equal values may be shown once. Read-outs that look alike come from different tables or passages of the source.
# Legend:
# [1] = EF5-related toxicity in patients after IV EF5 administration; assay type: in vivo, human; conditions: 22 HNSCC patients
# Text: Human Subjects. The Institutional Review Board of the University of Pennsylvania Clinical Trials and Scientific Monitoring Committee at the University of Pennsylvania Abramson Cancer Center and the Cancer Therapeutics Evaluation Program of the National Cancer Institute approved this prospective trial of EF5. All patients signed an approved consent form for both the study and for privacy (HIPPA). Patients of all ethnic and gender groups were included. Eligible patients were those undergoing resection or biopsy of a HNSCC as clinically indicated. Exclusion criteria included patients with a history of grade III or IV peripheral neuropathy, pregnant or nursing patients and patients <18 years old. Coleman, et al., Int. J. Radiat. Oncol., Biol., Phys., 1990, 18, 389-393. EF5 Administration. The National Cancer Institute, Division of Cancer Treatment supplied EF5 in 100 mL vials containing an aqueous solution of 3 mg/mL EF5 also containing 5% dextrose and 2.4% ethanol. This EF5 solution was administered through a peripheral IV catheter, 24-48 hours before surgery at a rate no greater than 350 mL/hr and to a total dose of 9-21 mg/kg. Blood samples for drug levels were obtained before and 1 hour after the completion of drug administration, and at the time of surgery. […]
# hypoxic cells = conditions: cited from earlier work
# [2] = test system: head and neck squamous cell carcinoma (HNSCC) tumor tissue; experiment: Quantitative fluorescence immunohistochemical analysis of EF5 binding in HNSCC tumor sections of patients; assay type: in vivo, human; design: key to Maximum CF95 Mean: % of CRB (maximal EF3 binding), scale 0-100%
# Method: EF5 Administration. The National Cancer Institute, Division of Cancer Treatment supplied EF5 in 100 mL vials containing an aqueous solution of 3 mg/mL EF5 also containing 5% dextrose and 2.4% ethanol. This EF5 solution was administered through a peripheral IV catheter, 24-48 hours before surgery at a rate no greater than 350 mL/hr and to a total dose of 9-21 mg/kg. Blood samples for drug levels were obtained before and 1 hour after the completion of drug administration, and at the time of surgery. Calculation of drug time/dose concentration (area under the curve, AUC) allowed the absolute EF5 tissue binding level to be corrected for variations in drug dose and exposure time between patients. Koch, et al., Cancer Chemother. Pharmacol., 2001, 48, 177-187.
# Tissue Acquisition and processing for EF5 Binding. 24-48 hours after completion of drug administration, tumors were resected or biopsied and placed in sterile, iced EXCELL 610 medium (JRH Biosciences, Lenexa, Kans.). In collaboration with the pathologist, tissue samples deemed unnecessary for clinical diagnosis were taken to the lab for processing and analysis.
# IHC staining methods and quantitative fluorescence microscopy of EF5 in in situ tumor sections and EF3 in tissue cubes for cube reference binding (CRB) were performed as reported previously. Evans, et al., Cancer Res., 2004, 64, 1886-1892. CRB determination is an in vitro technique where tissue cubes are incubated in 200 μM EF3, a sister drug of EF5, under controlled hypoxic conditions for 3 hours. The goal of this procedure was to determine the maximum level of EF3 binding possible for each patient's tumor. This technique allowed normalization of the in situ EF5 binding to each tumor's maximum binding value after correction for the AUC. Koch, et al., Cancer Chemother. Pharmacol., 2001, 48, 177-187. These values were used to calculate the maximum and average ‘% CRB’ value for each tumor, as described previously and briefly below. Evans, et al., Cancer Res., 2000, 60, 2018-2024. Thus, EF5 binding values for each tumor tissue are reported on a scale of 0-100% allowing for comparisons within and between tumors.
# Quantitative Image analysis. The quantitative analysis of tumor sections stained for EF3/EF5 has been previously described. Evans, J. Invest. Derm., 2006; Evans, et al., Int. J. Radiat. Oncol., Biol., Phys., 2001, 49, 587-596; Busch, et al., Adv Exp Med. Biol., 2003, 510, 37-43. Briefly, tissue sections were counterstained with Hoechst 33342 to identify the location of intact nuclei. These images were used to create bitmaps in order to generate binary masks of viable tissue regions. Masked regions of each section were analyzed for EF5-dependent immunofluorescence intensity using routines written in MatLab (The MathWorks, Inc., Natick, Mass.). EF5 intensity values of these regions were corrected for tissue section thickness, camera exposure time, relative lamp intensity, EF5 drug exposure (AUC) and CRB. Evans, et al., Cancer Res., 2000, 60, 2018-2024; Evans, et al., Int. J. Radiat. Oncol., Biol., Phys., 2001, 49, 587-596; Evans, et al, Clin. Cancer Res., 2004, 10, 8177-8184; Koch, et al., Cancer Chemother. Pharmacol., 2001, 48, 177-187. Data were then summarized by generating histograms of all positive pixels in the masked image, which were then converted into a cumulative frequency plot. The number of pixels at or below a given binding level can be identified from this plot. For example, CF95=20% would mean that 95% of the EF5 values in the image were at or below 20% of CRB. Terms to describe tissue oxygenation based on EF5 studies have been approximated by data from in vitro studies (Table 1). Koch, Method Enzymol., 2002, 352, 3-31. Normoxic conditions correspond to a CF95≈1%; for modestly/mildly hypoxic conditions, CF95≈3%; for moderately hypoxic conditions, CF95≈10%; for severely hypoxic conditions, CF95≈30%, and for anoxia, the CF95100%. The pO2 corresponding to these descriptive terms is found in Table 1. […]
# HNSCC = conditions: meta-analysis of trials; cited from earlier work
# HNSCC hypoxic tumors = conditions: 45 HNSCC patients, adjuvant cisplatin with tirapazamine; cited from earlier work
structure (smiles),measurement,setting,value
O=C(Cn1ccnc1[N+](=O)[O-])NCC(F)(F)C(F)(F)F [EF5],EF5-related grade 1 and 2 toxicity,[1],One patient each experienced EF5-related grade 1 and 2 toxicity
same,EF5-related grade 3 or 4 toxicity,[1]; 30 days following EF5 administration,no episodes of EF5-related grade 3 or 4 toxicity
same,Maximum EF5 binding (%),"hypoxic cells; Anoxia, pO2 0%",100%
same,Maximum EF5 binding (%),"hypoxic cells; Moderate hypoxia, pO2 0.5% (3.8 mm Hg)",10%
same,Maximum EF5 binding (%),"hypoxic cells; Modest (mild) hypoxia, pO2 2.5% (19 mm Hg)",3%
same,Maximum EF5 binding (%),"hypoxic cells; Normoxia, pO2 10% (76 mm Hg)",1%
same,Maximum EF5 binding (%),"hypoxic cells; Severe hypoxia, pO2 0.1% (0.76 mm Hg)",30%
same,Maximum CF95 Mean,[2]; Age <60 y (11),25.66
same,Maximum CF95 Mean,[2]; Age ≧60 y (11),21.11
same,Maximum CF95 Mean,[2]; All patients (22),23.38
same,Maximum CF95 Mean,[2]; Differentiation: Moderate (10),20.00
same,Maximum CF95 Mean,"[2]; Differentiation: Moderate to poor, poor (7)",35.87
same,Maximum CF95 Mean,"[2]; Differentiation: Well, well to moderate (5)",12.65
same,Maximum CF95 Mean,[2]; Gender: Men (18),26.74
same,Maximum CF95 Mean,[2]; Gender: Women (4),8.27
same,Maximum CF95 Mean,[2]; Nodal stage N0-N1 (15),17.96
same,Maximum CF95 Mean,[2]; Nodal stage N2-N3 (7),35.00
same,EF5 binding average CF95,"[2]; individual patient tumor, average of all tissue sections, biopsy 24-48 h after EF5 IV 9-21 mg/kg",0.8 % CRB and 0.9 % CRB and 1.9 % CRB and 1.1 % CRB and 4.2 % CRB and 5.6 % CRB and 6.2 % CRB and 6.1 % CRB and 6.4 % CRB and 10.8 % CRB and 16.0 % CRB and 19.6 % CRB and 18.7 % CRB and 12.5 % CRB and 26.0 % CRB and 14.2 % CRB and 23.0 % CRB and 36.9 % CRB and 38.5 % CRB and 34.5 % CRB and 0.4 % CRB and 1.3 % CRB
same,EF5 binding maximum CF95,"[2]; individual patient tumor, brightest binding of all tissue sections, biopsy 24-48 h after EF5 IV 9-21 mg/kg",1.4 % CRB (2×) and 2.8 % CRB and 6.0 % CRB and 7.9 % CRB and 8.2 % CRB and 8.9 % CRB and 10.0 % CRB and 16.4 % CRB and 17.8 % CRB and 19.4 % CRB and 23.1 % CRB and 25.4 % CRB and 30.7 % CRB and 35.8 % CRB and 36.0 % CRB and 61.7 % CRB and 66.0 % CRB and 66.5 % CRB and 66.6 % CRB and 1.2 % CRB and 1.3 % CRB
COCC(O)Cn1ccnc1[N+](=O)[O-] (stereo not drawn) [misonidazole],Effectiveness as hypoxic cell sensitizer,HNSCC,could be identified in a subset of patients
Nc1n[n+]([O-])c2ccccc2[n+]1[O-] [tirapazamine],Outcome (local-regional failure) of patients with hypoxic tumors,HNSCC hypoxic tumors,did as well as those with oxic tumors
